Assay results taken from US20110150980A1, “CGRP ANALOG” (VasoGenix Pharmaceuticals, Inc., priority 2009, published 2011).
Where two headings read alike, the source gives them in different places. Bridges are numbered along the chain shown (N, C = ends). Where no end group is shown, it is not given here.

Legend:
CRLR/RAMP1 receptor [1] = target: T1, CRLR/RAMP1 receptor (Homo sapiens, UniProt O60894+Q16602); test: CRE-luciferase assay in HEK293T cells transfected with CRLR and RAMP1; type: cell-based; conditions: for activity and potency in binding to the CGRP receptor, CRE-Luciferase assay: compared to h-α-CGRP and h-β-CGRP as controls
T1 construct: All of the full-length cDNAs were subcloned into pcDNA3.1 expression vectors; expressed in transfected cells; host or cells: HEK293T, transient calcium phosphate transfection, pcDNA3.1 vectors
T1 sequence (Q16602 23-461): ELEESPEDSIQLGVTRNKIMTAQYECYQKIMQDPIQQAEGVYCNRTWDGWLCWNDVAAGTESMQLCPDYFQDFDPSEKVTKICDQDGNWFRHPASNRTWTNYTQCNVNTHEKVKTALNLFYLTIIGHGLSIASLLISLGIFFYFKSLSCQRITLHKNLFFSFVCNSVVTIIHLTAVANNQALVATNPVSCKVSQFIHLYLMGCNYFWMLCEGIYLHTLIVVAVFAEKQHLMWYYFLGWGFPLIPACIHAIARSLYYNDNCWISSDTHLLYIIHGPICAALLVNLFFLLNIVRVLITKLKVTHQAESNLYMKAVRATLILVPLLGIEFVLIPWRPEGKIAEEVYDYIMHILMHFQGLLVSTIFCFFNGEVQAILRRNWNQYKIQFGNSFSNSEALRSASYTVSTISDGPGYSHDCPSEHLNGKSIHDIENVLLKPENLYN
T1 sequence (O60894 27-148): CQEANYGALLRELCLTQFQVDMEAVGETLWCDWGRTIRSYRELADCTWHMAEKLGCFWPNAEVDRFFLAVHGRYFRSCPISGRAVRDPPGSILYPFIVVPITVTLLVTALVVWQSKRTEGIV
Source text: The expression vectors for RAMP1, RAMP2, RAMP3, CRLR, CRE-Luc and SRE-Luc were constructed as previously described (McLatchie L. M., et al. (1998) Nature 393:333-339). Human CRLR, RAMP1, and RAMP2 full-length cDNAs were cloned by RT-PCR using RNA obtained from HEK293T cells and CRLR, RAMP1, and RAMP2-specific primers. Human RAMP3 full-length cDNAs were cloned by RT-PCR using RNA from human kidney and RAMP3 specific primers. All of the full-length cDNAs were subcloned into pcDNA3.1 expression vectors.
Human embryonic kidney 293T cells (HEK293T) were maintained in Dulbecco's modified Eagle's medium supplemented with 10% fetal calf serum, 2 mM glutamine, […], at 37° C. in a humidified atmosphere of 95% air and 5% CO2. Transient transfections were performed using calcium phosphate co-precipitation (Mellon P. L., et al. (1981) Cell 27:279-288). Cells in six-well plates or 100-mm Petri dishes were grown to 70% confluence and transfected with 0.1 μg of DNA for CRLR, 0.05 μg for RAMPs or 1 μg for CRE-Luc and SRE-Luc per cm^2. The total amount of DNA transfected in each condition was kept constant by adding empty pcDNA3.1 vector when needed. Twenty hours after transfection, the medium was replaced with fresh medium containing 5 mM sodium butyrate for 24 h and then replaced for an additional 24 h with fresh medium without sodium butyrate. All of the experiments were performed 72 h after transfection to allow correct glycosylation and cell surface targeting of CRLR and RAMPs.
After exposure to various concentrations of CGRP or the CGRP analogs, the cells were lysed and assayed for CRE- or SRE-luciferase activity using the luciferase assay system (Promega), and luminescence was measured using a 96-well luminometer.
The mechanism of action for CGRP at the CRLR/RAMP1 receptor is known to up-regulate cAMP through the gs pathway, and to a lesser extent [Ca^2+] through the gq pathway. […] It is the cAMP pathway that is the primary mechanism of action of CGRP for vasodilation, cardio/renoprotection and immunomodulation.

[2] = system: sedated Non Human Primate; test: IV infusion in the sedated Non Human Primate: blood pressure and heart rate (Example 1); type: in vivo; conditions: for Heart rate (HR) effect: at the 28 ng dose
[3] = system: non-sedated, non-naïve cynomolgus monkeys; test: Intravenous infusion in non-sedated, telemeterized non-human primates: blood pressure, heart rate, ECG (Example 2); type: in vivo
Protocol: Peptides were synthesized as in Example 1. […] Two non-naïve, telemeterized, male non-human primates (NHP “a” and “b”) were used for the test article(s) dosing regimen. […] Following a stabilized baseline period of approximately 30 minutes, one of the test article(s) was administered as an intravenous infusion via a femoral vein vascular access port (VAP) using a Pegasus PCA infusion pump for a period of 30 or 60 minutes. A minimum period of 30 minutes was allotted for the hemodynamic parameters to return to baseline prior to the next test article infusion dose. The process was repeated for each of the stated test articles. The same procedure was followed for the 1 hour infusion with 1 hour allotted for parameters to return to base line.
The non-human primates were previously surgically prepared with telemetry transducers, type TL11M2-D70-PCT (Data Sciences International). The acquisition and analysis was done using a Ponemah (Version 4.8 or higher) data acquisition and analysis system installed on the hard drive of a computer. The computer was equipped with disk drive for file back up on readable write-once only optical media (CD-R or DVD-R).
Prior to the first dose administration, baseline data was acquired. For each subsequent dose, data was collected for approximately 30 min postdose. Prior to the next dose, the hemodynamic parameters were allowed to return to a stable baseline±10%.
Systolic blood pressure (SYS or SBP), diastolic blood pressure (DBP), mean arterial pressure (MAP), heart rate (HR), and all lead II ECG variables were recorded. The telemetry data files were transferred to an Excel (MicroSoft® Version 2003) spreadsheet. The following variables from the lead II ECG were measured: PR interval, QRS duration, QT interval, RR interval, and QTcF interval (calculated as
A visual inspection of the entire collected ECG waveform for disturbances in rhythm and waveform morphology was performed. The data for selected time points were analyzed and assessed on completion of data acquisition and were the average of at least 30 beats (ABP and ECG) of data at the selected analysis time, when possible. The time points for both hemodynamic and ECG data analysis were an initial 30 min baseline prior to the first dose, at a 10 min during each infusion postdose interval relative to end of each infusion, and time points prior to the next test article infusion for each test compound.
Non-human primates were selected because they have the same RAMP 1-CGRP receptor complex as humans.

patients = conditions: cited from earlier work
CRLR/RAMP1 receptor [4] = target: CRLR/RAMP1 receptor (human, UniProt Q16602 23-461; O60894 27-148); test: cell-based or functional assay
Chain of CRLR/RAMP1 receptor (human, UniProt Q16602 23-461; O60894 27-148) (Q16602 23-461, chain 1 of 2): as the sequence (Q16602 23-461) above
Chain of CRLR/RAMP1 receptor (human, UniProt Q16602 23-461; O60894 27-148) (O60894 27-148, chain 2 of 2): as the sequence (O60894 27-148) above

[5] = NHP a, dose day 2, during 30 minute infusions of 0.024 ug/kg/min
[6] = NHP a, dose day 3, during 30 minute infusions of 0.024 ug/kg/min
[7] = NHP a, dose day 3, during 1 hour infusion of 0.024 ug/kg/min
[8] = NHP b, dose day 2, during 30 minute infusions of 0.024 ug/kg/min
[9] = NHP b, dose day 3, during 30 minute infusions of 0.024 ug/kg/min
[10] = NHP b, dose day 3, during 1 hour infusion of 0.024 ug/kg/min
[11] = average of a 2, b 2, a 3, b 3, during 30 minute infusions of 0.024 ug/kg/min
[12] = average of a3, b3, during 1 hour infusion of 0.024 ug/kg/min
[13] = Anand et al.: short-term IV infusions (10 or 20 minutes) at 0.8, 3.2, or 16 ng/kg/min
[14] = Sekhar et al.: 8 ng/kg/min by IV infusion for 8 hours
[15] = Stephenson et al.: 600 ng/min, 2-8 hour infusions for two consecutive days

## Cyc-ACDTATCVTHRLAGLLSRSGGVVKSNFVPTNVGSKAF-NH2 (disulfide 2-7 (inferred)) [Peptide III]
CRLR/RAMP1 receptor [1]
  activity and potency in binding to the CGRP receptor, CRE-Luciferase assay: as equally active and potent as h-α-CGRP and h-β-CGRP
[2]
  Heart rate (HR) effect: increased heart rate but less than CGRP

## Cyc-ACNTATCVTHRLAGLLSRSGGVVKSNFVPTNVGSKAF-NH2 (disulfide 2-7 (inferred)) [Peptide V]
[3]; [5]
  Percent change in HR, a 2: −19.8%
  Percent change in mean BP, a 2: −20.0%
  Percent change in systolic BP, a 2: −16.2%
[3]; [6]
  Percent change in HR, a 3: −22.2%
  Percent change in mean BP, a 3: −8.8%
  Percent change in systolic BP, a 3: −6.8%
[3]; [7]
  Percent change in HR at 30 minutes, a3: −22.2%
  Percent change in HR at 60 minutes, a3 1 hr: −5.8%
  Percent change in mean systolic BP at 30 minutes, a3: −8.8%
  Percent change in mean systolic BP at 60 minutes, a3 1 hr: −5.3%
  Percent change in systolic BP at 30 minutes, a3: −6.8%
  Percent change in systolic BP at 60 minutes, a3 1 hr: −5.8%
[3]; [8]
  Percent change in HR, b 2: −13.1%
  Percent change in mean BP, b 2: −28.6%
  Percent change in systolic BP, b 2: −27.2%
[3]; [9]
  Percent change in HR, b 3: −37.3%
  Percent change in mean BP, b 3: −26.4%
  Percent change in systolic BP, b 3: −23.9%
[3]; [10]
  Percent change in HR at 30 minutes, b3: −37.3%
  Percent change in HR at 60 minutes, b3 1 hr: 14.5%
  Percent change in mean systolic BP at 30 minutes, b3: −26.4%
  Percent change in mean systolic BP at 60 minutes, b3 1 hr: 2.4%
  Percent change in systolic BP at 30 minutes, b3: −23.9%
  Percent change in systolic BP at 60 minutes, b3 1 hr: 2.8%
[3]; Table 14, NHP a, dose day 2, during 30 minute infusions of 0.024 ug/kg/min
  Percent change in mean HR, a 2: −19.8%
[3]; Table 14, NHP a, dose day 3, during 30 minute infusions of 0.024 ug/kg/min
  Percent change in mean HR, a 3: −22.2%
[3]; Table 14, NHP b, dose day 2, during 30 minute infusions of 0.024 ug/kg/min
  Percent change in mean HR, b 2: −13.1%
[3]; Table 14, NHP b, dose day 3, during 30 minute infusions of 0.024 ug/kg/min
  Percent change in mean HR, b 3: −37.3%
[3]; Table 14, average of a 2, b 2, a 3, b 3, during 30 minute infusions of 0.024 ug/kg/min
  Percent change in mean HR, HR: −23.1%
[3]; Table 24, NHP a, dose day 3, during 1 hour infusion of 0.024 ug/kg/min
  Percent change in mean HR at 30 minutes, a3: −22.2%
[3]; Table 24, NHP b, dose day 3, during 1 hour infusion of 0.024 ug/kg/min
  Percent change in mean HR at 30 minutes, b3: −37.3%
[3]; Table 24, average of a3, b3, during 1 hour infusion of 0.024 ug/kg/min
  Percent change in mean HR at 30 minutes, HR T30: −29.8%
[3]; Table 25, NHP a, dose day 3, during 1 hour infusion of 0.024 ug/kg/min
  Percent change in mean HR at 60 minutes, a3 1 hr: −5.8%
[3]; Table 25, NHP b, dose day 3, during 1 hour infusion of 0.024 ug/kg/min
  Percent change in mean HR at 60 minutes, b3 1 hr: 14.5%
[3]; Table 25, average of a3, b3, during 1 hour infusion of 0.024 ug/kg/min
  Percent change in mean HR at 60 minutes, HR T60: 4.4%
[3]; [11]
  Percent change in HR, HR: −23.1%
  Percent change in mean BP, BP: −21.0%
  Percent change in systolic BP, BP: −18.5%
[3]; [12]
  Percent change in HR at 30 minutes, HR T30: −29.8%
  Percent change in HR at 60 minutes, HR T60: 4.4%
  Percent change in mean systolic BP at 30 minutes, BP T30: −17.6%
  Percent change in mean systolic BP at 60 minutes, BP T60: −1.5%
  Percent change in systolic BP at 30 minutes, T30: −15.4%
  Percent change in systolic BP at 60 minutes, T60: −1.5%
[3]; mean BP and HR, 30 minute infusions, 0.024 ug/kg/min
  reduction of BP and HR (Tables 8, 13 and 14, FIG. 11): reduced both BP and HR to a greater extent than the positive control αCGRP
[3]; non-sedated cynomolgus monkeys, IV infusion
  effect on heart rate: maintenance of pre-administration heart rate, and in some cases, reduction in heart rate
[3]; systolic BP and HR, 30 minute infusions, 0.024 ug/kg/min
  reduction of BP and HR (Tables 8-10, FIG. 10): reduced BP and HR to a greater extent than αCGRP and βCGRP
CRLR/RAMP1 receptor [1]
  activity and potency in binding to the CGRP receptor, CRE-Luciferase assay: as equally active and potent as h-α-CGRP and h-β-CGRP
[2]; at any of the tested doses
  Heart rate effect: no increase in heart rate
[2]; sedated Non Human Primate, IV for 5 minutes at 29/ng/kg/min
  increase in heart rate (HR) compared to the control CGRP: reduced increase in heart rate

## CGRP
patients; [13]
  hemodynamic effects: beneficial hemodynamic effects such as decreased systemic vascular resistance and increase in cardiac output
  tachycardia: no tachycardia observed
patients; Sekhar et al.: 8 ng/kg/min by IV infusion for 8 hours, during treatment
  renal blood flow and glomerular filtration: increased
patients; [14]
  hemodynamic effects: beneficial hemodynamic effects such as decreased pulmonary and systemic arterial pressure, decreased vascular resistance and increased cardiac output
  time after stopping infusion within which hemodynamic effects were lost: ≤ 30 min
patients; [15]
  side effects of pulsed therapy: unfavorable side effects of tachycardia and neurohumoral response were also observed
  tolerability and hemodynamic functions, pulsed therapy: well tolerated and was observed to improve hemodynamic functions such as left ventricular function
patients; Stephenson et al.: 600 ng/min, 48-hour continuous IV-infusion
  tolerability of continuous infusion therapy: infusion was discontinued after 28 hours in 3 out of the 6 patients due to nausea, diarrhea, and/or severe facial flushing

## Cyc-ACDTATCVTHRLADLLSRSGGVVKSNFVPTNVGSKAF-NH2 (disulfide 2-7 (inferred)) [Peptide IX]
CRLR/RAMP1 receptor [1]; at a concentration of 10^−10 molar
  potency in CRE-Luciferase assay: more potent
CRLR/RAMP1 receptor [1]
  activity and potency in binding to the CGRP receptor, CRE-Luciferase assay: as equally active and potent as h-α-CGRP and h-β-CGRP
[2]
  Heart rate (HR) effect: increased heart rate but less than CGRP

## ACDTATCVTHRLAGLLSRSGGVVKSNFVPTNVGSKAF-NH2 (disulfide 2-7 (inferred); also: acetate salt) [Peptide III, [Ser25] h-α-CGRP]
CRLR/RAMP1 receptor [4]
  CRE-Luciferase assay: concentration at which receptors were saturated: 100 nM

## ACDTATCVTHRLADLLSRSGGVVKSNFVPTNVGSKAF-NH2 (disulfide 2-7 (inferred); also: acetate salt) [Peptide IX, [Asp14, Ser25] h-α-CGRP]
CRLR/RAMP1 receptor [4]
  CRE-Luciferase activity at 10^-10 molar, fold over analogs III and V, h-α-CGRP and h-β-CGRP: 1.5 fold
  CRE-Luciferase assay: concentration at which receptors were saturated: 100 nM

## ACNTATCVTHRLAGLLSRSGGVVKSNFVPTNVGSKAF-NH2 (disulfide 2-7 (inferred); also: acetate salt) [Peptide V, [Asn3, Ser25] h-α-CGRP]
CRLR/RAMP1 receptor [4]
  CRE-Luciferase assay: concentration at which receptors were saturated: 100 nM
